This note sets out measurements from patent US20080293818A1, “Regulator of Physiological Function of Ghrelin and Use Thereof” (priority 2004, published 2008).

Marks after values point to notes of the source that are not given here.

Type in all cases: in vivo, mouse
In assay [1] the test system is acyl-modified and total ghrelin in the stomach. Briefly: Stomach ghrelin content after medium- to long-chain triacylglycerol ingestion (N-RIA / C-RIA). Conditions: mice, 5% (w/w) in chow, two weeks; for production of acyl-modified ghrelin in stomach tissue: N-RIA. The protocol: (§1) RIAs specific for ghrelin were performed as previously described [D2]. Two polyclonal antibodies were raised in rabbits against the N-terminal (Gly^1-Lys^11 with O-n-octanoylation at Ser^3) and C-terminal (Gln^13-Arg^28) fragments of rat ghrelin. RIA incubation mixtures were composed of 100 μl of either standard ghrelin or an unknown sample, with 200 μl of antiserum diluted in RIA buffer (50 mM sodium phosphate buffer (pH 7.4), 0.5% BSA, 0.5% Triton-X100, 80 mM sodium chloride (NaCl), 25 mM disodium ethylenediamine-tetraacetate (EDTA 2-Na) and 0.05% sodium azide (NaN3)) containing 0.5% normal rabbit serum. Anti-rat ghrelin [D1-D11] and anti-rat ghrelin [D13-D28] antisera were used at final dilutions of 1/3,000,000 and 1/20,000, respectively. After a 12-hour incubation at 4° C., 100 μl of ^125I-labeled ligand (20,000 cpm) was added for an additional 36-hour incubation. Then, 100 μl of anti-rabbit goat antibody was added. After incubation for 24 hours at 4° C., free and bound tracers were separated by centrifugation at 3,000 rpm for 30 min. Pellet radioactivity was quantified in a gamma counter (ARC-600, Aloka, Tokyo). All assays were performed in duplicate at 4° C.
(§2) Male C57BL/6J mice weighing 20-25 g (10-12 week old) were maintained under controlled temperature (21-23° C.) and light conditions (light on 0700-1900) with ad libitum access to food and water. Medium-chain fatty acids (MCFAs), i.e., n-hexanoic, n-octanoic, and n-lauric acids (Sigma-Aldrich Japan Co., Ltd., Tokyo), were dissolved in water at 5 mg/ml. n-Palmitic acid, a common long-chain fatty acid (LCFA) (Sigma-Aldrich Japan Co., Ltd., Tokyo), was mixed into standard laboratory chow (CLEA Rodent Diet CE-2, CLEA Japan, Osaka) at a concentration of 1% (w/w), to equilibrate the total intake amount of this lipid to the other medium-chain fatty acids contained in the food. Medium- and long-chain triglycerides (MCTs and LCTs), i.e., glyceryl trihexanoate, trioctanoate, tridecanoate and tripalmitates (Wako Pure Chemical, Osaka, Japan), were mixed with standard laboratory chow at a concentration of 5% (w/w). Whole stomach tissues from treated mice were collected at the indicated times (0-14 days) after ingesting the free fatty acid- or triacylglyceride-containing food. Fresh tissue samples from these mice were diced and boiled for 5 minutes in a 10-fold volume of water. The tissue-containing solution was then adjusted to 1M acetic acid after cooling and then homogenized with a Polytron mixer. The supernatant, obtained after centrifugation at 15,000 rpm for 15 minutes, was then lyophilized. The lyophilized material was dissolved in RIA buffer and subjected to ghrelin C- and N-RIA. To elucidate the forms of ghrelin peptides modified by different acyl groups, extracted stomach peptides were collected using a Sep-Pak Plus C18 cartridge (Waters, Milford, Mass.) and subjected to C18 RP-HPLC (Symmetry 300, 3.9×150 mm, Waters) with a linear gradient from 10 to 60% CH3CN/0.1% TFA at a flow rate of 1.0 ml/minute for 40 minutes. Five hundred micro-litter fractions were collected. Ghrelin peptide content in each fraction was measured by ghrelin C- and N-RIA as described above. Degradation of ghrelin was not observed during the extraction.
Orally ingested triacylglycerols are intraluminally hydrolyzed and absorbed through the gastro-intestinal mucosa as free fatty acids or monoglycerides. Thus, ingested triacylglycerols may serve as a source of free fatty acids [D26]. To examine if ingested triacylglycerols are used for acyl-modification of ghrelin, mice were fed chow mixed with 5% (w/w) glyceryl trihexanoate (C6), trioctanoate (C8), tridecanoate (C10), and tripalmintate (C16). After two weeks, gastric peptides were extracted. Ghrelin concentration in the stomach of these mice and in that from mice fed standard laboratory chow (Control) (n=8) are shown. The content of acyl-modified and total ghrelins was measured by N- and C-RIA. […]

For assay [2], the system named is des-acyl and acyl-modified ghrelin peptides in the stomach. Briefly: Molecular forms of stomach ghrelin peptide after ingestion (HPLC fractionation, C-RIA). Conditions: mice; for C6:0-ghrelin (n-hexanoyl ghrelin) concentration in the stomach / C8:0-ghrelin (n-octanoyl ghrelin) concentration in the stomach / C10:0-ghrelin (n-decanoyl ghrelin) concentration in the stomach / Des-acyl ghrelin concentration in the stomach / C10:1-ghrelin (n-decenoyl ghrelin) concentration in the stomach: 5% (w/w) in chow, 14 days, from 0.2 mg wet weight, C-RIA after HPLC, mean ± S.D.; for C10:1-ghrelin (n-decenoyl ghrelin) concentration in the stomach: fraction holds unidentified ghrelin molecules too; for stomach ghrelin modified by the acyl group corresponding to the ingested lipid: HPLC peak. The protocol: as §2
To clarify what molecular forms of ghrelin peptide are present after the ingestion of triacylglycerol (triacylglycerin), peptide extracts from stomachs of mouse fed chow containing glyceryl trihexanoate (C6:0-MCT), glyceryl trioctanoate (C8:0-MCT), glyceryl tridecanoate (C10:0-MCT), and standard laboratory chow (Control) were fractionated by HPLC, and measured for ghrelin immunoreactivity by C-RIA. […] Based on the observed retention times of synthetic acyl-modified ghrelin peptides, peaks a, d, h, and k corresponded to des-acyl ghrelin, peaks b, f, i, and 1 corresponded to n-octanoyl (C8:0) ghrelin, and peaks c, g, j, and m corresponded to n-decenoyl (10:1) ghrelin.
Male C57BL/6J mice were fed chow mixed with 5% (w/w) glyceryl trihexanoate (C6:0-MCT), glyceryl trioctanoate (C8:0-MCT), or glyceryl tri-decanoate (C10:0-MCT) for 14 days. The concentrations of des-acyl ghrelin, n-hexanoyl ghrelin (C6:0-ghrelin), n-octanoyl ghrelin (C8:0-ghrelin), n-decenoyl ghrelin (C10:1-ghrelin), and n-decanoyl ghrelin (C10:0-ghrelin) from stomach samples (from 0.2 mg wet weight) were measured by ghrelin C-RIA after HPLC fractionation.

The subject of assay [3] is acyl-modified and total ghrelin in the stomach. Briefly: Stomach ghrelin content after free fatty acid ingestion (N-RIA / C-RIA). The conditions noted are these: mice, 14 days; for total ghrelin concentration in the stomach vs control: C-RIA. As for the experimental part:
as §1
Stomachs collected from either mice or rats were washed two times in phosphate buffered physiological saline (pH 7.4). After measuring the wet weight of each sample, the whole stomach tissue was diced and boiled for 5 minutes in a 10-fold volume of water to inactivate intrinsic proteases. After cooling on ice, boiled samples were adjusted to 1 M acetic acid-20 mM hydrochloric acid (HCl). Peptides were extracted following homogenization with a Polytron mixer (PT 6100, Kinematica AG, Littan-Luzern, Switzerland). Extract supernatants, isolated following 15-minute-centrifugation at 15,000 rpm (12,000×g), were lyophilized and stored at −80° C. The lyophilized samples were redissolved in either RIA buffer or calcium mobilization assay buffer prior to ghrelin RIA or calcium mobilization assay, respectively.
as §2, with “Degradation of ghrelin was not observed during the extraction.” left out

`CCCCCCCCCCCCC(=O)OCC(O)CO` (stereo not shown) [glyceryl tridecanoate]: in assay [1], the “molar ratio of acyl-modified ghrelin/total ghrelin” value is reported as “increased” and the “production of acyl-modified ghrelin in stomach tissue” value (“production of acyl-modified ghrelin” below) was “no effect”. Further, in assay [2], the “C6:0-ghrelin (n-hexanoyl ghrelin) concentration in the stomach” value is listed as 22.1 ± 6.1, the “C8:0-ghrelin (n-octanoyl ghrelin) concentration in the stomach” value worked out at 460.0 ± 70.6, the “C10:0-ghrelin (n-decanoyl ghrelin) concentration in the stomach” value was 95.1 ± 9.7^a) and the “Des-acyl ghrelin concentration in the stomach” value was 181.4 ± 31.5^c). Also, the “C10:1-ghrelin (n-decenoyl ghrelin) concentration in the stomach” value in assay [2] is recorded as 64.5 ± 14.2^b). Further, the “stomach ghrelin modified by the acyl group corresponding to the ingested lipid” value (shortened to “stomach ghrelin modified”) in assay [2] (C-RIA) is listed as “increased”.

In the case of `CCCCCCCCCCCCCCCC(=O)OCC(COC(=O)CCCCCCCCCCCCCCC)OC(=O)CCCCCCCCCCCCCCC` [glyceryl tripalmitate], in assay [1], the “production of acyl-modified ghrelin” value is given as “no effect”. Further, in assay [2] (C-RIA), the “stomach ghrelin modified” value was “not observed”.

As for `CCCCCCCCCCCC(=O)OCC(COC(=O)CCCCCCCCCCC)OC(=O)CCCCCCCCCCC` [trilaurate], the “stomach ghrelin modified” value in assay [2] (C-RIA) is “not observed”.

Regarding n-palmitic acid, the “total ghrelin concentration in the stomach vs control” value in assay [3] was “No significant changes”. In addition, the “gastric concentration of acyl-modified ghrelin vs control” value (shortened to “gastric concentration … vs control”) in assay [3] (N-RIA) is “No significant changes”.

On to `CCCCCCCCCC(=O)O` [n-decanoic acid], for which, in assay [3], the “total ghrelin concentration in the stomach vs control” value is listed as “No significant changes”. Besides, the “gastric concentration … vs control” value in assay [3] (N-RIA) was “No significant changes”. For the same compound, the “stomach ghrelin modified” value in assay [2] (C-RIA) is recorded as “increased”.

Turning to `CCCC(=O)OCC(COC(=O)CCC)OC(=O)CCC` [glyceryl tributyrate], the “stomach ghrelin modified” value in assay [2] (C-RIA) is recorded as “not observed”.

`CCCCCCCC(=O)O` [n-octanoic acid]: in assay [3], the “ratio of n-octanoyl ghrelin/total ghrelin” value was “increased” and the “total ghrelin concentration in the stomach vs control” value was “No significant changes”. Further, the “gastric concentration … vs control” value in assay [3] (N-RIA) is recorded as “increased significantly”. In assay [3] (N-RIA, n=8, control 1,795), the “mean concentration of acyl-modified ghrelin in the stomach” value is 2,455 fmol/mg wet weight. Besides, the “stomach ghrelin modified” value in assay [2] (C-RIA) was “increased”.

Regarding `CCCCCC(=O)OCC(COC(=O)CCCCC)OC(=O)CCCCC` [glyceryl trihexanoate], in assay [1], the “molar ratio of acyl-modified ghrelin/total ghrelin” value was “decreased significantly” and the “production of acyl-modified ghrelin” value is “slightly suppressed”. Also, in assay [2], the “C6:0-ghrelin (n-hexanoyl ghrelin) concentration in the stomach” value is reported as 237.3 ± 35.0^a), the “C8:0-ghrelin (n-octanoyl ghrelin) concentration in the stomach” value is 358.0 ± 33.0^b), the “C10:0-ghrelin (n-decanoyl ghrelin) concentration in the stomach” value was determined as 14.1 ± 5.2 and the “Des-acyl ghrelin concentration in the stomach” value came out at 245.0 ± 11.0. The “C10:1-ghrelin (n-decenoyl ghrelin) concentration in the stomach” value in assay [2] is recorded as 133.5 ± 12.1^b). In addition, the “n-octanoyl ghrelin concentration in the stomach vs control” value in assay [2] (HPLC peak f, C-RIA) was “significant decreases”. Moreover, the “stomach ghrelin modified” value in assay [2] (C-RIA) is “increased drastically”.

On to `CCCCCC(=O)O` [n-hexanoic acid], for which the “total ghrelin concentration in the stomach vs control” value in assay [3] is “No significant changes”. Moreover, the “gastric concentration … vs control” value in assay [3] (N-RIA) is “No significant changes”. Moreover, in assay [2] (C-RIA), the “stomach ghrelin modified” value was “increased”.
